Measurements: PMC11938014, “Development and Application of Small Molecule–Peptide Conjugates as Cathepsin K-Specific Covalent Irreversible Inhibitors in Human Osteoclast and Lung Cancer” (JACS Au, 2025)

Key:
[1] = system: IL-4-induced macrophage cells; assay: Residual cathepsin activity in IL-4-induced macrophages lacking CTSK (GB123 gel); format: cell-based, mouse; conditions: 5 μM, 2 h, then GB123
Experimental: (§1) Human and mouse CTSK species have a high degree of structural commonality. […] Therefore, to investigate the inhibitors’ cross-reactivity with mouse CTSK, mouse OCs were cultivated with mouse bone marrow cells stimulated with M-CSF and RANKL for 9–10 days. In addition, control cells differentiated into macrophages that highly express active cathepsins but not CTSK and were generated by treatment with M-CSF and IL-4.[49] Both intact OC and macrophage cells were incubated for 2 h with GD20, vehicle, or ODN, followed by a 2 h incubation with pan-cathepsin probe GB123. The CTSK-specific fluorescent band near 25 kDa disappeared in cells treated with GD20, whereas the other competing band remained unaltered (Figure 7a). Mice OS samples were blotted to identify the different cathepsins in the sample (Figure S9b).
(§2) Figure 7 CTSK inhibition in mice osteoclasts. (a) Activity and expression of CTSK in mouse OCs were assessed in the presence of indicated inhibitors. Intact OCs were treated for 2 h with 5 μM inhibitor in the culture medium, followed by 2 h of labeling of residual enzyme activity by GB123. Samples were analyzed by SDS-PAGE and scanned for fluorescence with a Typhoon scanner at 635/670 nm. Western blot with anti-CTSK is shown aside. […] Samples were analyzed by SDS-PAGE and scanned for fluorescence with a Typhoon scanner at 635/670 nm. […]

mouse CTSK in mouse OCs = biological target: T1, mouse CTSK in mouse OCs (Mus musculus, UniProt P55097); assay: Residual cathepsin activity in mice osteoclasts (GB123 gel); format: cell-based; conditions: 5 μM, 2 h, then GB123 2 h
T1 construct: endogenous in cells; host or cells: osteoclasts differentiated from C57BL/6 mouse bone marrow
T1 sequence (P55097 115-329): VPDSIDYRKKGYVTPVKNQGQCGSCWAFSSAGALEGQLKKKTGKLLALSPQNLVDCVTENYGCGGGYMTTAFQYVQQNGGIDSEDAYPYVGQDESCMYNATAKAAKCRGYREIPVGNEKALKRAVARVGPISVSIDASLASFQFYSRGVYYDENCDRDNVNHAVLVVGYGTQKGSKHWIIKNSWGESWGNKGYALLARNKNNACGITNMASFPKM
Experimental: as §1, §2

CTSK in human OCs = biological target: T2, CTSK in human OCs (Homo sapiens, UniProt P43235); assay: Gel-based residual cathepsin activity in human osteoclasts (GB123) and immunoblot; format: cell-based
T2 construct: endogenous in cells; host or cells: primary human osteoclasts differentiated from blood monocytes with M-CSF and RANKL
T2 sequence (P43235 115-329): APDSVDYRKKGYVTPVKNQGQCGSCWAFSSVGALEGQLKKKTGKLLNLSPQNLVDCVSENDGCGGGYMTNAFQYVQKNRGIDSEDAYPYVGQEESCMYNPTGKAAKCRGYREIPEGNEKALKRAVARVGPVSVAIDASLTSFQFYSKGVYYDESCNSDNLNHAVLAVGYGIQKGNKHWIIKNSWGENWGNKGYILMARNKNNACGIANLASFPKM
Experimental: Figure 6 CTSK inhibition in human osteoclasts. (a) Scheme of the process of maturation of osteoclasts (OCs) derived from human monocytes in the presence of RANKL and M-CSF. (b) Representative pictures of bone resorption after incubation with human OCs treated with vehicle or inhibitors for 10–14 days. Bone resorption was observed by a toluidine blue stain. Increased staining indicates a higher number of resorption pits and greater bone resorption. (c) Quantitative analysis of pit formation in bone slices after incubation with OC treated with GD20 or ODN (1, 5 μM) relative to vehicle treated slices. Data represent mean ± standard errors, and asterisks represent p values relative to control, *p < 0.05, **p < 0.01, ***p < 0.001, n = 3 bone slices. (d) Representative images of tartrate-resistant acid phosphatase (TRAP) staining of the human osteoclasts on bone slices in the presence of vehicle or inhibitors, as indicated. […] (e) Quantification of osteoclasts number on bone slices after inhibitor treatment, detected by TRAP staining. (f) Human OCs were treated with vehicle or increasing concentrations of GD20 for 11 days (changing the medium every 2–3 days). The activity of CTSK in the cells was detected by 2 h labeling with a pan-cathepsin activity-based probe, GB123, followed by a fluorescence scan of the SDS-PAGE detecting CTSK attached to the probe; the red arrow points to the bands of CTSK (above 25 kDa). CTSK immunoblot of the same OCs is presented aside.
Cells were seeded 3 × 10^6 per 24-well plate (Primaria, Corning) in 1 mL of RPMI 1640 medium supplemented with 10% FBS and 50 μg/mL gentamicin. The next day, the medium was removed, and the adherent cells were washed with α-MEM and cultured for 14 consecutive days in α-MEM supplemented with 10% FBS, 1% penicillin, 1% streptomycin (Biological Industries), 100 ng/mL RANKL (R&D Systems), and 25 ng/mL M-CSF (R&D Systems) (for osteoclast) or with 25 ng/mL M-CSF and IL-4 (macrophage). Every 3 days, the media was changed with the required amount of M-CSF and RANKL until the giant osteoclasts appeared or with M-CSF and IL-4. […]

CTSK-specific fluorescent band near 25 kDa (mouse CTSK in mouse OCs): disappeared | CTSK activity in human OC (CTSK in human OCs; 1 μM, 11 days, GB123 labeling): blocked most of the CTSK activity | CTSB activity in human OC (CTSK in human OCs; accompanying CTSK inhibition, GB123 labeling): increase in CTSB activity | CTSK protein levels by immunoblot (CTSK in human OCs; all inhibitor concentrations): elevated CTSK protein levels
SMILES: CC(C)C[C@H](N[C@@H](c1ccc(-c2ccc(S(C)(=O)=O)cc2)cc1)C(F)(F)F)C(=O)NCC(=O)COC(=O)[C@@H]1CCCN1C(=O)[C@H](CC(C)C)NC(=O)OCC1c2ccccc2-c2ccccc21 [GD20]
inhibition of cathepsin bands in macrophages that lack CTSK [1]: lack of inhibition of any band
